From patent publication US9730940B2, “Purine inhibitors of human phosphatidylinositol 3-kinase delta” (priority 2012, dated 2017)

Target: PI3K-alpha (Homo sapiens (Human), UniProt P42336)
Assay: HTRF PI3K biochemical assay, alpha isoform
Conditions: ratio PI3K-alpha IC50 value/PI3K-delta IC50 value

PI3K-alpha, sequence (P42336 whole entry, looked up, canonical isoform): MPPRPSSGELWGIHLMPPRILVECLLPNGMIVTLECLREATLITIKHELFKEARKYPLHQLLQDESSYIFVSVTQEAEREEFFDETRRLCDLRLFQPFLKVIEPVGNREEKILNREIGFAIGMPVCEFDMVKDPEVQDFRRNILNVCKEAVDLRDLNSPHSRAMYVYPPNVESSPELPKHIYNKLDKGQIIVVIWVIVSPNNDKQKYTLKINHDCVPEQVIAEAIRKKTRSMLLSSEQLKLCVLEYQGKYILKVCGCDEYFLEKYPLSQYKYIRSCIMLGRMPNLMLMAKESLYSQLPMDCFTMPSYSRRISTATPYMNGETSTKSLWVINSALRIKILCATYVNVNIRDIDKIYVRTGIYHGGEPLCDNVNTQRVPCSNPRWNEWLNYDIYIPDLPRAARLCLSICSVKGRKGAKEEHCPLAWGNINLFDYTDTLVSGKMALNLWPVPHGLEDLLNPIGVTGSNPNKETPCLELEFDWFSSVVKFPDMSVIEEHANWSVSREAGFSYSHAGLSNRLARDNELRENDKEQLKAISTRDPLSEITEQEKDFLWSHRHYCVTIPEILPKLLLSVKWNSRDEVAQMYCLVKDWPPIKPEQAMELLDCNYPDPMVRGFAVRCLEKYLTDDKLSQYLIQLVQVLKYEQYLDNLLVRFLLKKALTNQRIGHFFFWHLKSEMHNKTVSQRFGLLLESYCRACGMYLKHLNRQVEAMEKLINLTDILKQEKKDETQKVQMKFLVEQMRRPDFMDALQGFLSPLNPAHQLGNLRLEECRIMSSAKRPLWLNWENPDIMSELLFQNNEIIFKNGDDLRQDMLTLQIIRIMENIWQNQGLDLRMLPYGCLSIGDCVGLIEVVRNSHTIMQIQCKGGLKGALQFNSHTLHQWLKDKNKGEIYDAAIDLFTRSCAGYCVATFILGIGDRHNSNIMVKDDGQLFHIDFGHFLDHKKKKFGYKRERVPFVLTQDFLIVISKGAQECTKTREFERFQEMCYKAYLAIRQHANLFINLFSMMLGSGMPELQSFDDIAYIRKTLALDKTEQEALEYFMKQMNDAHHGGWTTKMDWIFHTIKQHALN
PI3K-alpha, sequence (P27986 whole entry partner, looked up, canonical isoform): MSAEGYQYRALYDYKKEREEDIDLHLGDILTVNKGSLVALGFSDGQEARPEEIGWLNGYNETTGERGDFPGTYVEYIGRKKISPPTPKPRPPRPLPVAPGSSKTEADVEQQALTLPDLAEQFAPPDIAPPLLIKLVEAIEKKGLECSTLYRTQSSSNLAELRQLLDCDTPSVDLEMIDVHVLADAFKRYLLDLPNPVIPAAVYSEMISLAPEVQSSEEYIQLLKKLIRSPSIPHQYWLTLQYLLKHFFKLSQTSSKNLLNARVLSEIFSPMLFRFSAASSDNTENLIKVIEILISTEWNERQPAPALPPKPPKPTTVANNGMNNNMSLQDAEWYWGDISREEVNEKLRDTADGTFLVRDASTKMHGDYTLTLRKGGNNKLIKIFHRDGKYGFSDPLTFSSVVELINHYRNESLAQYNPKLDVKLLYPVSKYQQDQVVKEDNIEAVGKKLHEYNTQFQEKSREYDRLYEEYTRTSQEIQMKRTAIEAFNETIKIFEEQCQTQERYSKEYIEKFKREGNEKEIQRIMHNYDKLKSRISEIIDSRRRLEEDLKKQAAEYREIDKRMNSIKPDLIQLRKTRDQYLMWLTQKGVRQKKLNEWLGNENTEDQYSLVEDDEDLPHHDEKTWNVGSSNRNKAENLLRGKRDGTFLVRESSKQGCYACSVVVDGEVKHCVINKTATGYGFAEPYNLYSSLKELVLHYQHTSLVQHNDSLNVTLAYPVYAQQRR

Row | Structure (SMILES) | Relative Selectivity versus PI3Kalpha
1 | CCOC(=O)[C@H](C)NC(=O)N1CC[C@H](Oc2ncnc3c2nc(-c2cnn(CC)c2C)n3C)C1 [Compound 5-6, ethyl N-{[(3S)-3-{[8-(1-ethyl-5-methyl-1H-pyrazol-4-yl)-9-methyl-9H-purin-6-yl]oxy}pyrrolidin-1-yl]carbonyl}alaninate] | 5
2 | CCNC(=O)N1CC[C@H](Oc2ncnc3c2nc(-c2cnn(CC)c2C)n3C)C1 [Compound 5-7, (S)-N-ethyl-3-((8-(1-ethyl-5-methyl-1H-pyrazol-4-yl)-9-methyl-9H-purin-6-yl]oxy}pyrrolidine-1-carboxamide] | >10
3 | CCNC(=O)N1CC[C@H](Oc2ncnc3c2nc(-c2cnc(C)nc2)n3CC)C1 [Compound 5-8, (3S)-N-ethyl-3-{[9-ethyl-8-(2-methylpyrimidin-5-yl)-9H-purin-6-yl]oxy}pyrrolidine-1-carboxamide] | >10
4 | CCN(C)C(=O)N1CC[C@H](Oc2ncnc3c2nc(-c2cnc(C)nc2)n3CC)C1 [Compound 5-9, (3S)-N-ethyl-3-{[9-ethyl-8-(2-methylpyrimidin-5-yl)-9H-purin-6-yl]oxy}-N-methylpyrrolidine-1-carboxamide] | >10
5 | CCn1c(-c2cnc(C)nc2)nc2c(O[C@H]3CCN(C(=O)N(C)C4CC4)C3)ncnc21 [Compound 5-10, (3S)-N-cyclopropyl-3-{[9-ethyl-8-(2-methylpyrimidin-5-yl)-9H-purin-6-yl]oxy}-N-methylpyrrolidine-1-carboxamide] | >10
6 | CCn1c(-c2cnc(C)nc2)nc2c(O[C@H]3CCN(C(=O)N4CCC4)C3)ncnc21 [Compound 5-11, 6-{[(3S)-1-(azetidin-1-ylcarbonyl)pyrrolidin-3-yl]oxy}-9-ethyl-8-(2-methylpyrimidin-5-yl)-9H-purine] | >10
7 | CCn1c(-c2cnc(C)nc2)nc2c(OC3CCN(C(=O)N(C)c4ccccc4)CC3)ncnc21 [Compound 5-12, 4-{[9-ethyl-8-(2-methylpyrimidin-5-yl)-9H-purin-6-yl]oxy}-N-methyl-N-phenylpiperidine-1-carboxamide] | >10
8 | CCn1c(-c2cnc(C)nc2)nc2c(O[C@H]3CCN(C(=O)N4CC(OC)C4)C3)ncnc21 [Compound 5-13, 9-ethyl-6-({(3S)-1-[(3-methoxyazetidin-1-yl)carbonyl]pyrrolidin-3-yl}oxy)-8-(2-methylpyrimidin-5-yl)-9H-purine] | >10
9 | CCn1c(-c2cnc(C)nc2)nc2c(O[C@H]3CCN(C(=O)N4CC(F)(F)C4)C3)ncnc21 [Compound 5-14, 6-{[(3S)-1-[(3,3-difluoroazetidin-1-yl)carbonyl]pyrrolidin-3-yl}oxy)-9-ethyl-8-(2-methylpyrimidin-5-yl)-9H-purine] | >10
10 | CCn1c(-c2cnc(C)nc2)nc2c(O[C@H]3CCN(C(=O)N(C)c4ccccc4)C3)ncnc21 [Compound 5-17, (3S)-3-{[9-ethyl-8-(2-methylpyrimidin-5-yl)-9H-purin-6-yl]oxy}-N-methyl-N-phenylpyrrolidine-1-carboxamide] | >10
11 | CCn1c(-c2cnc(C)nc2)nc2c(O[C@H]3CCN(C(=O)N4CCC(CO)C4)C3)ncnc21 (stereo partly drawn) [Compound 5-18, (1-{[(3S)-3-{[9-ethyl-8-(2-methylpyrimidin-5-yl)-9H-purin-6-yl]oxy}pyrrolidin-1-yl]carbonyl}pyrrolidin-3-yl)methanol] | >10
12 | CCn1c(-c2cnc(C)nc2)nc2c(O[C@H]3CCN(C(=O)N4CCC(C)(C)C4)C3)ncnc21 [Compound 5-19, 6-({(3S)-1-[(3,3-dimethylpyrrolidin-1-yl)carbonyl]pyrrolidin-3-yl}oxy)-9-ethyl-8-(2-methylpyrimidin-5-yl)-9H-purine] | >10
13 | CCn1c(-c2cnc(C)nc2)nc2c(O[C@H]3CCN(C(=O)N4CCC(C)(O)C4)C3)ncnc21 (stereo partly drawn) [Compound 5-20, 1-{[(3S)-3-{[9-ethyl-8-(2-methylpyrimidin-5-yl)-9H-purin-6-yl]oxy}pyrrolidin-1-yl]carbonyl}-3-methylpyrrolidin-3-ol] | >10
14 | CCn1c(-c2cnc(C)nc2)nc2c(O[C@H]3CCN(C(=O)N4CC(C)(OC)C4)C3)ncnc21 [Compound 5-21, 9-ethyl-6-({(3S)-1-[(3-methoxy-3-methylazetidin-1-yl)carbonyl]pyrrolidin-3-yl}oxy)-8-(2-methylpyrimidin-5-yl)-9H-purine] | >10
15 | CCn1c(-c2cnc(C)nc2)nc2c(O[C@H]3CCN(C(=O)N4CC5CC5C4)C3)ncnc21 (stereo partly drawn) [Compound 5-22, 6-{[(3S)-1-(3-azabicyclo[3.1.0]hex-3-ylcarbonyl)pyrrolidin-3-yl]oxy}-9-ethyl-8-(2-methylpyrimidin-5-yl)-9H-purine] | >10
16 | CCn1c(-c2cnc(C)nc2)nc2c(O[C@H]3CCN(C(=O)N4CCCCC4)C3)ncnc21 [Compound 5-23, 9-ethyl-8-(2-methylpyrimidin-5-yl)-6-{[(3S)-1-(piperidin-1-ylcarbonyl)pyrrolidin-3-yl]oxy}-9H-purine] | >10

Row | Structure (SMILES) | Relative Selectivity versus PI3Kalpha
17 | CCn1c(-c2cnc(C)nc2)nc2c(O[C@H]3CCN(C(=O)N4C5CCC4CC5)C3)ncnc21 [Compound 5-24] | >10
18 | CCn1c(-c2cnc(C)nc2)nc2c(O[C@H]3CCN(C(=O)N4CC(O)C4)C3)ncnc21 [Compound 5-25, 1-{[(3S)-3-{[9-ethyl-8-(2-methylpyrimidin-5-yl)-9H-purin-6-yl]oxy}pyrrolidin-1-yl]carbonyl}azetidin-3-ol] | >10
19 | CCn1c(-c2cnc(C)nc2)nc2c(O[C@H]3CCN(C(=O)N4CCC(F)(F)C4)C3)ncnc21 [Compound 5-26, 6-({(3S)-1-[(3,3-difluoropyrrolidin-1-yl)carbonyl]pyrrolidin-3-yl}oxy)-9-ethyl-8-(2-methylpyrimidin-5-yl)-9H-purine] | >10
20 | CCn1c(-c2cnc(C)nc2)nc2c(O[C@H]3CCN(C(=O)N4CC(F)C4)C3)ncnc21 [Compound 5-27, 9-ethyl-6-({(3S)-1-[(3-fluoroazetidin-1-yl)carbonyl]pyrrolidin-3-yl}oxy)-8-(2-methylpyrimidin-5-yl)-9H-purine] | >10
21 | CCn1c(-c2ccc(C(F)(F)F)nc2)nc2c(O[C@H]3CCN(C(=O)N4CC(OC)C4)C3)ncnc21 [Compound 5-28, (S)-(3-((9-ethyl-8-(6-(trifluoromethyl)pyridin-3-yl)-9H-purin-6-yl)oxy)pyrrolidin-1-yl)(3-methoxyazetidin-1-yl)methanone] | >10
22 | CCn1ncc(-c2nc3c(O[C@H]4CCN(C(C)c5ccccc5)C4)ncnc3n2C)c1C (stereo partly drawn) [Compound 6-1, 8-(1-ethyl-5-methyl-1H-pyrazol-4-yl)-9-methyl-6-{[(3S)-1-(1-phenylethyl)pyrrolidin-3-yl]oxy}-9H-purine] | >10
23 | CCn1ncc(-c2nc3c(O[C@H]4CCN(CC5CCCCC5)C4)ncnc3n2C)c1C [Compound 6-2, 6-{[(3S)-1-(cyclohexylmethyl)pyrrolidin-3-yl]oxy}-8-(1-ethyl-5-methyl-1H-pyrazol-4-yl)-9-methyl-9H-purine] | >10
24 | CCCN1CC[C@H](Oc2ncnc3c2nc(-c2cnn(CC)c2C)n3C)C1 [Compound 6-5, (S)-8-(1-ethyl-5-methyl-1H-pyrazol-4-yl)-9-methyl-6-((1-propylpyrrolidin-3-yl)oxy)-9H-purine] | >10
25 | CCn1c(-c2cnc(C)nc2)nc2c(OC3CN(Cc4ccccc4)CC3(C)C)ncnc21 (centres unmarked) [Compound 6-6, 6-((1-benzyl-4,4-dimethylpyrrolidin-3-yl)oxy)-9-ethyl-8-(2-methylpyrimidin-5-yl)-9H-purine] | >10
26 | CCn1ncc(-c2nc3c(O[C@H]4CCN(c5ncccn5)C4)ncnc3n2C)c1C [Compound 7-1, 8-(1-ethyl-5-methyl-1H-pyrazol-4-yl)-9-methyl-6-{[(3S)-1-pyrimidin-2-ylpyrrolidin-3-yl]oxy}-9H-purine] | >10
27 | CCn1ncc(-c2nc3c(O[C@H]4CCN(c5ncnc6sc(C)cc56)C4)ncnc3n2C)c1C [Compound 7-2, 8-(1-ethyl-5-methyl-1H-pyrazol-4-yl)-9-methyl-6-{[(3S)-1-(6-methylthieno[2,3-d]pyrimidin-4-yl)pyrrolidin-3-yl]oxy}-9H-purine] | >10
28 | CCn1ncc(-c2nc3c(O[C@H]4CCN(c5nccc6sccc56)C4)ncnc3n2C)c1C [Compound 7-3, 8-(1-ethyl-5-methyl-1H-pyrazol-4-yl)-9-methyl-6-{[(3S)-1-thieno[3,2-c]pyridin-4-ylpyrrolidin-3-yl]oxy}-9H-purine] | >10
29 | CCn1ncc(-c2nc3c(O[C@H]4CCN(c5ncnc6ccsc56)C4)ncnc3n2C)c1C [Compound 7-4, 8-(1-ethyl-5-methyl-1H-pyrazol-4-yl)-9-methyl-6-{[(3S)-1-thieno[3,2-d]pyrimidin-4-ylpyrrolidin-3-yl]oxy}-9H-purine] | >10
30 | CCn1ncc(-c2nc3c(O[C@H]4CCN(c5cc(C(F)(F)F)ccn5)C4)ncnc3n2C)c1C [Compound 7-5, 8-(1-ethyl-5-methyl-1H-pyrazol-4-yl)-9-methyl-6-({(3S)-1-[4-(trifluoromethyl)pyridin-2-yl]pyrrolidin-3-yl}oxy)-9H-purine] | >10
31 | CCn1ncc(-c2nc3c(O[C@H]4CCN(c5nccn6cnnc56)C4)ncnc3n2C)c1C [Compound 7-6, 8-[(3S)-3-{[8-(1-ethyl-5-methyl-1H-pyrazol-4-yl)-9-methyl-9H-purin-6-yl]oxy}pyrrolidin-1-yl][1,2,4]triazolo[4,3-a]pyrazine] | >10
32 | CCn1ncc(-c2nc3c(O[C@H]4CCN(c5ccccn5)C4)ncnc3n2C)c1C [Compound 7-7, 8-(1-ethyl-5-methyl-1H-pyrazol-4-yl)-9-methyl-6-{[(3S)-1-pyridin-2-ylpyrrolidin-3-yl]oxy}-9H-purine] | >10
